For experiment [1], the species on record is Homo sapiens. In words: Selectivity ratio of IC50 for human EGFR T790M mutant to IC50 for human wild type EGFR.
In experiment [2] the test system is Epidermal growth factor receptor (Homo sapiens), P00533 [UNDEFINED MUTATION].
Description: Inhibition of human EGFR del19/T790M/C797S mutant expressed in mouse Ba/F3 cells assessed as cell growth inhibition after 72 hrs by CellTiter-Glo assay
Experiment [3] has as its target Epidermal growth factor receptor (Homo sapiens, UniProt P00533). Put plainly: Inhibition of wild type recombinant N-terminal GST-tagged human EGFR catalytic domain expressed in Sf9 insect cells using poly-Glu-Tyr (4:1) as substrate after 2 hrs in presence of [gamma-33P]-ATP by filter-binding method.
Experiment [4] addresses Epidermal growth factor receptor (Homo sapiens, UniProt P00533, 746-750DEL/C797S/T790M). In words: Inhibition of recombinant human EGFR d746-750/T790M/C797S mutant using poly-Glu-Tyr (4:1) as substrate after 2 hrs in presence of [gamma-33P]-ATP by filter-binding method.
The species named for experiment [5] is Homo sapiens. Put plainly: Selectivity ratio of IC50 for wild type recombinant N-terminal GST-tagged human EGFR catalytic domain to IC50 for recombinant human EGFR d746-750/T790M/C797S mutant.
For experiment [6], the target named is Epidermal growth factor receptor (Homo sapiens, UniProt P00533, C797S/L858R/T790M). In words: Inhibition of recombinant human EGFR L858R/T790M/C797S mutant using TK-substrate after 10 mins by HTRF KinEASE-TK assay.
Epidermal growth factor receptor (Homo sapiens, UniProt P00533, C797S/L858R/T790M), sequence (P00533 25-1210 T790M/C797S/L858R limits assumed): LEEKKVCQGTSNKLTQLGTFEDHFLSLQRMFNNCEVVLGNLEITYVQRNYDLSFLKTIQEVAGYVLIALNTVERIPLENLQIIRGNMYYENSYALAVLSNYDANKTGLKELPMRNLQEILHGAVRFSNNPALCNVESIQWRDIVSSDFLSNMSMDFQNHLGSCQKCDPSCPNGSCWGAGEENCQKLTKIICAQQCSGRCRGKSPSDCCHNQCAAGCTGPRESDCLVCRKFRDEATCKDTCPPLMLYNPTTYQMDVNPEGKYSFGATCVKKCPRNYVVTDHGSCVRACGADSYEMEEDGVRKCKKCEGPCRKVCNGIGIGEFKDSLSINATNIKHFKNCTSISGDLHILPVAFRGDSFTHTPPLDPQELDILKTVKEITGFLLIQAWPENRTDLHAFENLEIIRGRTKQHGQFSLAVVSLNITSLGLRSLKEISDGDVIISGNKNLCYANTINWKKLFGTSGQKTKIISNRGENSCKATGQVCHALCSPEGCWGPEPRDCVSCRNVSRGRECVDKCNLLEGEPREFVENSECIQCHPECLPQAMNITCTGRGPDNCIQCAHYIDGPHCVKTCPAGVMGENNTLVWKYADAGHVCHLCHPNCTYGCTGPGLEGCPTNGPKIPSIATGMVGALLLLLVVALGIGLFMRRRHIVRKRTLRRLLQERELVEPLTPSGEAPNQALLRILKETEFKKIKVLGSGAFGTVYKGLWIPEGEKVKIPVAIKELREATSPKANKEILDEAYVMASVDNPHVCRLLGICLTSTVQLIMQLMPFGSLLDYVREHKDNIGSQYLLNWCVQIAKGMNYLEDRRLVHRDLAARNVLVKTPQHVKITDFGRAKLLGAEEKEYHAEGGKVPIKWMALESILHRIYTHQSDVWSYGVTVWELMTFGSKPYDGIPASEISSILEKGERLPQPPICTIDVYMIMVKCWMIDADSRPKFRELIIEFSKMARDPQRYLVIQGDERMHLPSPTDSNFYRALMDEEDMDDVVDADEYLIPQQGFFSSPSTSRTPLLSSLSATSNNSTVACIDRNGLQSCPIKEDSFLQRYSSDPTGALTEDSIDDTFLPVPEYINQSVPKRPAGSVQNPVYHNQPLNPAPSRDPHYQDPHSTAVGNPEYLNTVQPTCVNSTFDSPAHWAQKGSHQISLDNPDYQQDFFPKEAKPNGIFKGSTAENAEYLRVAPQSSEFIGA
A further experiment deals with NCI-H1975. In words: Growth inhibition of human NCI-H1975 cells after 96 hrs by CellTiter-Glo assay. In kind it is functional. To be noted: NCI-H1975, 96 h.
Experiment [7] addresses Epidermal growth factor receptor (Homo sapiens, UniProt P00533, C797S/T790M). Put plainly: Inhibition of N-terminal GST-fused human EGFR cytoplasmic domain T790M/C797S mutant expressed in baculovirus expression system using TK-substrate after 20 mins by HTRF KinEASE-TK assay.

Epidermal growth factor receptor (Homo sapiens, UniProt P00533, 746-750DEL/C797S/T790M), sequence (P00533 whole entry, looked up, stated change not applied, the tested form may be a part): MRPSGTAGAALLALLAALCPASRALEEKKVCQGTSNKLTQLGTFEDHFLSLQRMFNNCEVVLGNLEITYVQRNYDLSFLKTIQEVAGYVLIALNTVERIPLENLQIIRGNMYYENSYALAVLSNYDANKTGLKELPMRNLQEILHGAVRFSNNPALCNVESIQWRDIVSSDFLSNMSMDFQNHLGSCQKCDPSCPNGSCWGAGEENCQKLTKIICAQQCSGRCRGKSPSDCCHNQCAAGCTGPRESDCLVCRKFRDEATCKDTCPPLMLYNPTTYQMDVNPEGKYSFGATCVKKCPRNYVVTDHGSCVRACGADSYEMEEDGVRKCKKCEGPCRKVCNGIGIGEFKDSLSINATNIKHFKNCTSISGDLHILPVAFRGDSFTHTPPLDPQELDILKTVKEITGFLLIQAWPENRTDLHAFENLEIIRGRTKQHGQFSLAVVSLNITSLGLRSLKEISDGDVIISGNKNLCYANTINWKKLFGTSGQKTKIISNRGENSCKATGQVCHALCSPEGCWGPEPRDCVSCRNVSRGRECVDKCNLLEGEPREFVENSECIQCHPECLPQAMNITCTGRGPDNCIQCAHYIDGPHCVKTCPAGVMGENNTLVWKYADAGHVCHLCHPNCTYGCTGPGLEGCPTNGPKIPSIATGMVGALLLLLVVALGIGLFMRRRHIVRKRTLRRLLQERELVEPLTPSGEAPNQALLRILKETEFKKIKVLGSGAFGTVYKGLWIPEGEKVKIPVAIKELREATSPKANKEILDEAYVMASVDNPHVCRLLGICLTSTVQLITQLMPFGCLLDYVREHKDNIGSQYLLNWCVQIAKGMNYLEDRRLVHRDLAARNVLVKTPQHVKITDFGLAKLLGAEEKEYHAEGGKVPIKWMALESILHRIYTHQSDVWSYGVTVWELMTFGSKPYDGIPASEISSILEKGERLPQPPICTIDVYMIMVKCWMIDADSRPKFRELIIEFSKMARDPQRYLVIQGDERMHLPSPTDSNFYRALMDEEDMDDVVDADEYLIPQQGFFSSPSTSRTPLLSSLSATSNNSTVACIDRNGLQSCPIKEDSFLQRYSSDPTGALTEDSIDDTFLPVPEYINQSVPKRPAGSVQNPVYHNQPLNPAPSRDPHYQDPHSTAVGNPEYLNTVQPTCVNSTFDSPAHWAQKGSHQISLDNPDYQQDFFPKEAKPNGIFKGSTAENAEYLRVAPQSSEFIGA
Epidermal growth factor receptor (Homo sapiens, UniProt P00533), sequence (P00533 whole entry, the tested form may be a part): as the sequence (P00533 whole entry, looked up, stated change not applied, the tested form may be a part) above
Epidermal growth factor receptor (Homo sapiens), P00533 [UNDEFINED MUTATION], sequence (P00533 whole entry, looked up, stated change not applied, the tested form may be a part): as above

Take `C=CC(=O)Nc1cccc(Oc2nc(Nc3ccc(N4CCN(C)CC4)cc3OC)ncc2Cl)c1`: in the experiment filed under Homo sapiens [1], the Ratio IC50 fell in the range of 30 to 100.

Compound `COc1cc(N2CCC(N3CCN(C)CC3)CC2)ccc1Nc1ncnc(Nc2ccccc2S(=O)(=O)C(C)C)n1` returned a GI50 in experiment [2] of 1510 nM.

For the compound `COC(=O)c1ccc(O)c(-c2nc(NCc3cccnc3)c3ccccc3n2)c1`, the 50% inhibitory concentration (IC50) in experiment [3] is over 50000 nM; in experiment [4] it was 46 nM. For the same compound, the Ratio IC50 in the experiment listed under Homo sapiens [5] was over 1000.

Regarding `COc1cc(N2CCC(N)CC2)ccc1Nc1ncc(Cl)c(-c2c[nH]c3ccccc23)n1`, in experiment [2], it took 132 nM to inhibit growth by half (GI50).

Turning to `N#Cc1ccc(O)c(-c2nc(NCc3cnccn3)c3ccccc3n2)c1`, the half-maximal inhibitory concentration (IC50) is over 50000 nM in experiment [3] and 17 nM in experiment [4]. In the experiment listed under Homo sapiens [5], the Ratio IC50 was over 1000.

In the case of `C=CC(=O)N1CCC[C@@H](n2nc(-c3cccc4ccccc34)c3c(N)ncnc32)C1`, the results for the IC50 in experiment [6] and in experiment [7] were 7900 nM and 1.9 nM, respectively. This compound also came in with a 50% growth inhibitory concentration (GI50) in the experiment on NCI-H1975 of 490 nM.

Turning to `Cc1cc(Nc2ncc(Cl)c(Nc3ccccc3S(=O)(=O)C(C)C)n2)c(OC(C)C)cc1C1CCNCC1`, the 50% growth inhibitory concentration (GI50) in experiment [2] was determined as 780 nM.

As to `C=CC(=O)N1CCC[C@@H](n2nc(-c3cn(C)c4ccccc34)c3c(N)ncnc32)C1`, the IC50 turned out to be 838 nM in experiment [6] and 2.5 nM in experiment [7]. The compound also gave a GI50 in the experiment on NCI-H1975 of 210 nM.

For the compound `Oc1ccccc1-c1nc(NCc2cccnc2)c2ccccc2n1`, the figures for the IC50 in experiment [3] and in experiment [4] were 24300 nM and 149 nM, respectively. Moreover, in the experiment listed under Homo sapiens [5], the Ratio IC50 worked out at 163.

For `C=CC(=O)N1CCC[C@@H](n2nc(-c3ccc4ccccc4c3)c3c(N)ncnc32)C1`, the IC50 was 88 nM in experiment [6] and under 1 nM in experiment [7]. In the experiment on NCI-H1975, this compound showed a GI50 of 140 nM.

The compound `COc1cc(N2CCC(N(C)C)CC2)ccc1Nc1ncc(Cl)c(Nc2ccccc2P(C)(C)=O)n1` yielded a concentration for 50% growth inhibition (GI50) in experiment [2] of 59.1 nM.

Take `N#Cc1ccc(O)c(-c2nc(NCc3cccnc3)c3ccccc3n2)c1`: the results for the half-inhibitory concentration (IC50) in experiment [3] and in experiment [4] were over 50000 nM and 23 nM, respectively. Besides, the Ratio IC50 in the experiment listed under Homo sapiens [5] is over 1000.

The values are drawn from ChEMBL document CHEMBL4184160, “Recent Progress of Small-Molecule Epidermal Growth Factor Receptor (EGFR) Inhibitors against C797S Resistance in Non-Small-Cell Lung Cancer” (J Med Chem, 2018).
